# “Also recorded” adds a separate entry of the source.
# Tested on: not listed separately
# Experiment: Solubility as observed on handling
# Assay type: physicochemical
# Settings: not given
row,SMILES,solubility (in words)
1,"O=c1[nH]c2ccccc2cc1COc1ccc(Nc2nccc(-c3ccc(Cl)cc3)n2)cc1 [Compound 15, 3-((4-((4-(4-Chlorophenyl)pyrimidin-2-yl)amino)phenoxy)methyl)quinolin-2(1H)-one]",highly insoluble; also recorded: problems related with solubility

# Target: T1, hLDHA (Homo sapiens, UniProt P00338)
# T1 construct: purchased Abcam
# Experiment: not given
# Design: method as in PMID 25466195
# Settings: W31, ligand of complex 4R68; cited from earlier work
row,SMILES,IC50 [µM]
1,C[C@H](OC(=O)Cc1ccc(Cl)c(SC2=C(O)C[C@@H](c3c(Cl)cccc3Cl)CC2=O)c1)c1ccccc1 [Compound W31],0.006

# Target: T1, hLDHA
# Experiment: hLDHA enzymatic assay (kinetic fluorometric, pyruvate substrate, NADH co-factor)
# Assay type: biochemical
# Settings: not given
# Protocol: The inhibitory activity of the pyrimidine-quinolone hybrids 10, 15, 19, and 24–31(a–c) against the hLDHA enzyme was measured by a kinetic spectrofluorometric assay.
# hLDHA activity was determined throughout a fluorometric method with pyruvate as substrate and NADH co-factor, as previously reported and modified as described here: in each well, the final volume was set to 200 µL, and the final concentrations were 100 mM potassium phosphate buffer, 0.041 units/mL hLDHA (95%, specific activity >300 units/mg and concentration of 0.5 mg/mL, Abcam, Cambridge, United Kingdom), 151 µM β-NADH, 1 mM pyruvate (saturated conditions), and DMSO solutions (2%, v/v) of pure compounds at concentrations in the range of 0.048–100 µM. The reaction was initiated by the addition of pyruvate, and the NADH concentration decrease was measured for 10 min in a TECAN Infinite 200 Pro M Plex fluorescence plate reader at 28 °C, with excitation at 340 nm and emission at 460 nm. The percentage of activity for each measure was calculated by comparison between the maximum slope of each compound concentration and the maximum slope when no inhibitor (DMSO only) was in the well (100% enzymatic activity). The compound 3-[[3[(cyclopropylamino)sulfonyl]-7-(2,4-dimethoxy-5-pyrimidinyl)-4-quinolinyl]amino]-5-(3,5-difluorophenoxy)benzoic acid (GSK 2837808 A, Tocris, Minneapolis, MN, USA) was used as a positive control.
# The measurements were obtained thrice, and data were expressed as the mean ± SD of n = 3 replicates for IC50 values. As-obtained data were later plotted in GraphPad Prism version 5.00 for Windows (GraphPad Software, La Jolla, CA, USA). Nonlinear regression analysis was chosen for dose response curve, representing the logarithm of inhibitor concentration vs. normalized enzymatic activity in order to calculate IC50 values.
row,inhibitory activity against hLDHA (in words),SMILES
1,inactive,"O=c1[nH]c2ccccc2cc1CSc1ccc(Nc2nccc(-c3ccc4c(c3)OCO4)n2)cc1 [Compound 31a, 3-(((4-((4-(Benzo[d][1,3]dioxol-5-yl)pyrimidin-2-yl)amino)phenyl)thio)methyl)quinolin-2(1H)-one]"
2,inactive,"COc1ccc2[nH]c(=O)c(CSc3ccc(Nc4nccc(-c5ccc6c(c5)OCO6)n4)cc3)cc2c1 [Compound 31c, 3-(((4-((4-(Benzo[d][1,3]dioxol-5-yl)pyrimidin-2-yl)amino)phenyl)thio)methyl)-6-methoxyquinolin-2(1H)-one]"

# Same assay, conditions: hLDHA, 1 mM pyruvate, 151 µM β-NADH, compounds 0.048–100 µM, n = 3
row,IC50 [µM],SMILES
1,> 100,"O=c1[nH]c2ccccc2cc1COc1ccc(Nc2nccc(-c3ccc(Cl)cc3)n2)cc1 [Compound 15, 3-((4-((4-(4-Chlorophenyl)pyrimidin-2-yl)amino)phenoxy)methyl)quinolin-2(1H)-one]"
2,> 100,"O=c1[nH]c2ccccc2cc1COc1ccccc1Oc1nccc(-c2ccc(Cl)cc2)n1 [Compound 19, 3-((2-((4-(4-Chlorophenyl)pyrimidin-2-yl)oxy)phenoxy)methyl)quinolin-2(1H)-one]"
3,31.5,"O=c1[nH]c2ccccc2cc1CSc1ccccc1Nc1nccc(-c2ccc(Cl)cc2)n1 [Compound 24a, 3-(((2-((4-(4-Chlorophenyl)pyrimidin-2-yl)amino)phenyl)thio)methyl)quinolin-2(1H)-one]"
4,34.8,"O=c1[nH]c2ccc(Cl)cc2cc1CSc1ccccc1Nc1nccc(-c2ccc(Cl)cc2)n1 [Compound 24b, 6-Chloro-3-(((2-((4-(4-chlorophenyl)pyrimidin-2-yl)amino)phenyl)thio)meth-yl)quinolin-2(1H)-one]"
5,79.1,"COc1ccc2[nH]c(=O)c(CSc3ccccc3Nc3nccc(-c4ccc(Cl)cc4)n3)cc2c1 [Compound 24c, 3-(((2-((4-(4-Chlorophenyl)pyrimidin-2-yl)amino)phenyl)thio)methyl)-6-methoxyquinolin-2(1H)-one]"
6,26.9,"O=c1[nH]c2ccccc2cc1CSc1ccccc1Nc1nccc(-c2ccc(C(F)(F)F)cc2)n1 [Compound 25a, 3-(((2-((4-(4-(Trifluoromethyl)phenyl)pyrimidin-2-yl)amino)phenyl)thio)methyl)quinolin-2(1H)-one]"
7,42.3,"O=c1[nH]c2ccc(Cl)cc2cc1CSc1ccccc1Nc1nccc(-c2ccc(C(F)(F)F)cc2)n1 [Compound 25b, 6-Chloro-3-(((2-((4-(4-(trifluoromethyl)phenyl)pyrimidin-2-yl)amino)phenyl)thio)methyl)quinolin-2(1H)-one]"
8,71.8,"COc1ccc2[nH]c(=O)c(CSc3ccccc3Nc3nccc(-c4ccc(C(F)(F)F)cc4)n3)cc2c1 [Compound 25c, 6-Methoxy-3-(((2-((4-(4-(trifluoromethyl)phenyl)pyrimidin-2-yl)amino)phenyl)thio)methyl)quinolin-2(1H)-one]"
9,17.8,"O=c1[nH]c2ccccc2cc1CSc1ccccc1Nc1nccc(-c2ccc3ccccc3c2)n1 [Compound 26a, 3-(((2-((4-(Naphthalen-2-yl)pyrimidin-2-yl)amino)phenyl)thio)methyl)quinolin-2(1H)-one]"
10,20.3,"O=c1[nH]c2ccc(Cl)cc2cc1CSc1ccccc1Nc1nccc(-c2ccc3ccccc3c2)n1 [Compound 26b, 6-Chloro-3-(((2-((4-(naphthalen-2-yl)pyrimidin-2-yl)amino)phenyl)thio)me-thyl)quinolin-2(1H)-one]"
11,27.7,"COc1ccc2[nH]c(=O)c(CSc3ccccc3Nc3nccc(-c4ccc5ccccc5c4)n3)cc2c1 [Compound 26c, 6-Methoxy-3-(((2-((4-(naphthalen-2-yl)pyrimidin-2-yl)amino)phenyl)thio)methyl)quinolin-2(1H)-one]"
12,> 100,"O=c1[nH]c2ccccc2cc1CSc1ccccc1Nc1nccc(-c2ccc3c(c2)OCO3)n1 [Compound 27a, 3-(((2-((4-(Benzo[d][1,3]dioxol-5-yl)pyrimidin-2-yl)amino)phenyl)thio)methyl)quinolin-2(1H)-one]"
13,89,"O=c1[nH]c2ccc(Cl)cc2cc1CSc1ccccc1Nc1nccc(-c2ccc3c(c2)OCO3)n1 [Compound 27b, 3-(((2-((4-(Benzo[d][1,3]dioxol-5-yl)pyrimidin-2-yl)amino)phenyl)thio)methyl)-6-chloroquinolin-2(1H)-one]"
14,60,"COc1ccc2[nH]c(=O)c(CSc3ccccc3Nc3nccc(-c4ccc5c(c4)OCO5)n3)cc2c1 [Compound 27c, 3-(((2-((4-(Benzo[d][1,3]dioxol-5-yl)pyrimidin-2-yl)amino)phenyl)thio)methyl)-6-methoxyquinolin-2(1H)-one]"
15,> 100,"O=c1[nH]c2ccccc2cc1CSc1ccc(Nc2nccc(-c3ccc(Cl)cc3)n2)cc1 [Compound 28a, 3-(((4-((4-(4-Chlorophenyl)pyrimidin-2-yl)amino)phenyl)thio)methyl)quinolin-2(1H)-one]"
16,> 100,"O=c1[nH]c2ccc(Cl)cc2cc1CSc1ccc(Nc2nccc(-c3ccc(Cl)cc3)n2)cc1 [Compound 28b, 6-Chloro-3-(((4-((4-(4-chlorophenyl)pyrimidin-2-yl)amino)phenyl)thio)meth-yl)quinolin-2(1H)-one]"
17,> 100,"COc1ccc2[nH]c(=O)c(CSc3ccc(Nc4nccc(-c5ccc(Cl)cc5)n4)cc3)cc2c1 [Compound 28c, 3-(((4-((4-(4-Chlorophenyl)pyrimidin-2-yl)amino)phenyl)thio)methyl)-6-methoxyquinolin-2(1H)-one]"
18,> 100,"O=c1[nH]c2ccccc2cc1CSc1ccc(Nc2nccc(-c3ccc(C(F)(F)F)cc3)n2)cc1 [Compound 29a, 3-(((4-((4-(4-(Trifluoromethyl)phenyl)pyrimidin-2-yl)amino)phenyl)thio)methyl)quinolin-2(1H)-one]"
19,83.2,"O=c1[nH]c2ccc(Cl)cc2cc1CSc1ccc(Nc2nccc(-c3ccc(C(F)(F)F)cc3)n2)cc1 [Compound 29b, 6-Chloro-3-(((4-((4-(4-(trifluoromethyl)phenyl)pyrimidin-2-yl)amino)phenyl)thio)methyl)quinolin-2(1H)-one]"
20,> 100,"COc1ccc2[nH]c(=O)c(CSc3ccc(Nc4nccc(-c5ccc(C(F)(F)F)cc5)n4)cc3)cc2c1 [Compound 29c, 6-Methoxy-3-(((4-((4-(4-(trifluoromethyl)phenyl)pyrimidin-2-yl)amino)phenyl)thio)methyl)quinolin-2(1H)-one]"
21,62.9,"O=c1[nH]c2ccccc2cc1CSc1ccc(Nc2nccc(-c3ccc4ccccc4c3)n2)cc1 [Compound 30a, 3-(((4-((4-(Naphthalen-2-yl)pyrimidin-2-yl)amino)phenyl)thio)methyl)quinolin-2(1H)-one]"
22,> 100,"O=c1[nH]c2ccc(Cl)cc2cc1CSc1ccc(Nc2nccc(-c3ccc4ccccc4c3)n2)cc1 [Compound 30b, 6-Chloro-3-(((4-((4-(naphthalen-2-yl)pyrimidin-2-yl)amino)phenyl)thio)methyl)quinolin-2(1H)-one]"
23,> 100,"COc1ccc2[nH]c(=O)c(CSc3ccc(Nc4nccc(-c5ccc6ccccc6c5)n4)cc3)cc2c1 [Compound 30c, 6-Methoxy-3-(((4-((4-(naphthalen-2-yl)pyrimidin-2-yl)amino)phenyl)thio)methyl)quinolin-2(1H)-one]"
24,> 100,"O=c1[nH]c2ccccc2cc1CSc1ccc(Nc2nccc(-c3ccc4c(c3)OCO4)n2)cc1 [Compound 31a, 3-(((4-((4-(Benzo[d][1,3]dioxol-5-yl)pyrimidin-2-yl)amino)phenyl)thio)methyl)quinolin-2(1H)-one]"
25,49.9,"O=c1[nH]c2ccc(Cl)cc2cc1CSc1ccc(Nc2nccc(-c3ccc4c(c3)OCO4)n2)cc1 [Compound 31b, 3-(((4-((4-(Benzo[d][1,3]dioxol-5-yl)pyrimidin-2-yl)amino)phenyl)thio)methyl)-6-chloroquinolin-2(1H)-one]"
26,> 100,"COc1ccc2[nH]c(=O)c(CSc3ccc(Nc4nccc(-c5ccc6c(c5)OCO6)n4)cc3)cc2c1 [Compound 31c, 3-(((4-((4-(Benzo[d][1,3]dioxol-5-yl)pyrimidin-2-yl)amino)phenyl)thio)methyl)-6-methoxyquinolin-2(1H)-one]"
27,19.6,"O=c1[nH]c2ccccc2cc1CSc1cccc(Nc2nccc(-c3ccc4ccccc4c3)n2)c1 [Compound 35a, 3-(((3-((4-(Naphthalen-2-yl)pyrimidin-2-yl)amino)phenyl)thio)methyl)quinolin-2(1H)-one]"
28,24.6,"O=c1[nH]c2ccc(Cl)cc2cc1CSc1cccc(Nc2nccc(-c3ccc4ccccc4c3)n2)c1 [Compound 35b, 6-Chloro-3-(((3-((4-(naphthalen-2-yl)pyrimidin-2-yl)amino)phenyl)thio)me-thyl)quinolin-2(1H)-one]"
29,50.1,"COc1ccc2[nH]c(=O)c(CSc3cccc(Nc4nccc(-c5ccc6ccccc6c5)n4)c3)cc2c1 [Compound 35c, 6-Methoxy-3-(((3-((4-(naphthalen-2-yl)pyrimidin-2-yl)amino)phenyl)thio)methyl)quinolin-2(1H)-one]"

# Reference: PMC9322123, “Design and Synthesis of New Pyrimidine-Quinolone Hybrids as Novel hLDHA Inhibitors” (Pharmaceuticals, 2022)
